One data set concerns the target T1, rM3Ds (Rattus norvegicus, UniProt P08483, A177S/A238G/A489L/DEL261-437/DEL441-478/E258S/I253V/I483M/INS256[…]/K178L/K182A/K255R/K484R/K486H/L173F/L482A/M480V/R171S/R176Q/R179M/S481M/T174R/T181R/T257A/Y148C).
T1 construct: host or cells: HEK293T
T1 sequence (P08483 with tags, fused parts or gaps Y148C/R171S/L173F/T174R/R176Q/A177S/K178L/R179M/T181R/K182A/A238G/I253V/K255R/INS256[…]/T257A/E258S/DEL261-437/DEL441-478/M480V/S481M/L482A/I483M/K484R/K486H/A489L): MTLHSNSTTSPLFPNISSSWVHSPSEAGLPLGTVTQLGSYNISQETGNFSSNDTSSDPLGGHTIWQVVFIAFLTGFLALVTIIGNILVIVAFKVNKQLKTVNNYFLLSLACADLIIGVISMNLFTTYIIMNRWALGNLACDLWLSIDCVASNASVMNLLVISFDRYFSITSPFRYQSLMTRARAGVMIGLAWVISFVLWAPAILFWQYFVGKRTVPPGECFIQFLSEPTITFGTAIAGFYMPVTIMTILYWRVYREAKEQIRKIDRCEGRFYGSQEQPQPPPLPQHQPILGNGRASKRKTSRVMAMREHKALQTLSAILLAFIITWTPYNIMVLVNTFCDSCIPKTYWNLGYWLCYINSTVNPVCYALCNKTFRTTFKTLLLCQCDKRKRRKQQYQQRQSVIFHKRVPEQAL
Kind of data set: cAMP assay (CRE-luciferase reporter) in HEK293T cells expressing rM3Ds. The class given is cell-based. The following applies: 100 μM of ACh, rM3Ds-transfected cells. On the technique in general: Changes in cAMP serve as a functional read-out for many G protein-coupled receptors.

Data set [1] concerns dopaminergic neurons in the SNc. Kind of data set: 6-OHDA lesion, TH staining of striatum and SNc. The following applies: bilateral injection into the striatum, 800 nL of 5 mg/mL per side, 1 week. The class given is in vivo, mouse. How it is done: A PD mouse model was generated using 6-OHDA. Desipramine (Sigma) was administrated (25 mg/kg) via intraperitoneal injection 30 min before a 6-OHDA injection. The stereotactic injection procedure was identical to the AAV injection described above. A volume of 800 nL 6-OHDA (5 mg/mL) was injected into each side of striatum (from bregma: AP 0.5 mm, ML ±1.5 mm, DV –3.2 mm) at a rate of 100 nL/min. One week after 6-OHDA lesions were generated, AAV injections were administered, and behavioral tests were conducted 3 weeks after AAV injections.
Animals were deeply anesthetized and perfused with saline and 4% paraformaldehyde perfusion through left ventricle. The mouse brains were extracted, fixed overnight, and then dehydrated with 30% sucrose solution. After being embedded in OCT (Sakura), brain sections were prepared at 40 μm thickness by a cryostat (Leica, CM1950).
Brain slices were blocked and permeabilized with PBS containing 5% bovine serum albumin (BSA) and 0.3% Triton X-100 for 30 min. The slices were then incubated with anti-GFP (Abcam, ab13970) or anti-TH (Abcam, ab76442), diluted to 1:500 in PBS containing 5% BSA at 4°C overnight. The sections were then incubated with diluted Alexa Fluor 488 goat anti-chicken IgG antibody (Thermo Fisher, A-11039) or Alexa Fluor 594 donkey anti-mouse IgG antibody (Thermo Fisher, A32744) at room temperature for 1 h. […]

The values below come from article PMC12015759, “A humanized Gs-coupled DREADD for circuit and behavior modulation” (Frontiers in Cellular Neuroscience, 2025).

SMILES strings stand for the structures.

Take `CC(=O)OCC[N+](C)(C)C` [ACh, acetylcholine chloride]: the luciferase activity entry on rM3Ds was “modest elevation in luciferase activity”. For the compound `NCCc1cc(O)c(O)cc1O` [6-OHDA, 6-hydroxydopamine], in data set [1], the “dopaminergic neurons in the SNc and dopaminergic innervation in the striatum” value was “almost complete loss”.
